These results are taken from patent publication US20240368123A1, “AROMATIC RING-CONTAINING BIOLOGICAL ANTAGONIST, AND PREPARATION METHOD THEREFOR AND USE THEREOF” (SHANGHAI HANSOH BIOMEDICAL CO., LTD., priority 2021, published 2024).

By IC50 is commonly meant the midpoint of a concentration-inhibition curve. As usually defined, the AUC(0-inf) is total exposure, with the tail of the curve extrapolated. Broadly, the Cmax is the maximum level reached in the sampled fluid or tissue. A word on the Tmax: it is the time at which the peak concentration occurs.

Structures are written as SMILES.

Series [1] is described as follows: Liver microsomal metabolism stability test, rat. Format: in vitro ADME. The following applies: rat liver microsomes, 60 min. On the procedure:
(§1) The purpose of this experiment was to detect the stability of the example compounds in liver microsomes of rats, dogs and humans.
(§2) • Formulation of working solution of compounds: compound stock solution was added to phosphate buffer to a final concentration of 20 μM.
(§3) Dilution was performed with 100 mM phosphate buffer to a final concentration of 0.625 mg/mL.
(§4) NADPH (reduced nicotinamide adenine dinucleotide phosphate) and UDPGA (uridine diphosphate glucuronic acid) were weighed, 100 mM phosphate buffer was added, and the final concentration was 20 mM.
(§5) 1 mg of Alamethicin was weighed, and 200 μL of DMSO was added to formulate a 5 mg/mL solution. Then dilution was performed with phosphate buffer to a final concentration of 50 μg/mL.
(§6) Stop solution: the stop solution contains 100 ng/mL labetalol hydrochloride and 400 ng/mL tolbutamide and cold acetonitrile as internal standard.
(§7) 400 μL of formulated liver microsomes, 25 μL of compound working solution and 25 μL of Alamethicin were added in sequence to the 96-well plate, and pre-incubated at 37° C. for 10 min. Then 50 μL of formulated NADPH/UDPGA was added to start the reaction and the mixture was incubated at 37° C. The total volume of the reaction system was 500 μL. The final contents of each component are as follows:
(§8) • Instrument: Shimadzu LC-30 AD; • Chromatographic column: XBridge® C18 (50*4.6 mm, 5 μm particle size); • Mobile phase: A: 0.1% formic acid solution, B: methanol Wash gradient: 0.2-1.6 min 5% A to 95% A, 3.0-3.1 min 95% A to 5% A Run time: 4.0 min.
(§9) • Instrument: API5500 liquid chromatography mass spectrometer, AB Sciex; • Ion source: electrospray ionization source (ESI); • Drying gas: N2, temperature 500° C.; • Electrospray voltage: 5000 V; • Detection mode: positive ion detection; • Scanning mode: reaction monitoring (MRM) mode.
For orientation: Liver microsomes are a subcellular fraction often used to study metabolism.

A short description of series [2]: Liver microsomal metabolism stability test, human. Format: in vitro ADME. Particulars: human liver microsomes, 60 min. Here is the method:
as §1, §2, §3, §4, §5, §6, §7, §8, §9

Series [3] in a line: Liver microsomal metabolism stability test, dog. Format: in vitro ADME. The following applies: dog liver microsomes, 60 min. Here is the method: as §1, §2, §3, §4, §5, §6, §7, §8, §9
Series [4] relates to spontaneously hypertensive rat (SHR) model. The series can be described thus: Pharmacodynamic evaluation on blood pressure in spontaneously hypertensive rats. Format: in vivo. The following applies: P.O, 30 mpk, 1-8 h after administration, P<0.05. An excerpt:
This experiment used a spontaneously hypertensive rat (SHR) model to evaluate the pharmacodynamic effect of the test compounds on the blood pressure and heart rate of the model.
Kent Scientific CODA non-invasive blood pressure system.
Spontaneously hypertensive rats (SHR) were provided by Beijing Vital River Laboratory Animal Technology Co., Ltd., male, 150-200 g, 13-15 weeks old, 50 rats.
After animals arrived at the experimental facility, the animals were adapted to the animal facility for 5-7 days. 4.2 After the adaptation period, the animals were adapted to the tail oversleeve restrain for 3 days, and the tail oversleeve restrain was performed twice a day. After the last restrain adaptation, the basal blood pressure was measured, and the animals were randomly divided into groups according to the basal blood pressure. There was no significant difference between the average systolic blood pressure of animals in each group, and the number of animals in each group met the requirements of statistical testing and pharmacodynamic guidelines. 4.3 On the second day after grouping, the animals were administered according to experimental design and grouping (P.O, 5 mL/kg), and the systolic blood pressure (SBP), diastolic blood pressure (DBP), mean arterial pressure (MAP) and heart rate (HR) of the animals were measured before administration and at 1, 2, 4, 6, 8 and 24 h after administration using tail oversleeve method.
Statistical differences between groups were analyzed by Two-way ANOVA test. Among them, P<0.05 indicated a significant difference, and P<0.01 indicated an extremely significant difference.

Another series has as its target T1, AT1 receptors (Homo sapiens, UniProt P30556).
T1 construct: host or cells: HEK293
T1 sequence (P30556 1-359): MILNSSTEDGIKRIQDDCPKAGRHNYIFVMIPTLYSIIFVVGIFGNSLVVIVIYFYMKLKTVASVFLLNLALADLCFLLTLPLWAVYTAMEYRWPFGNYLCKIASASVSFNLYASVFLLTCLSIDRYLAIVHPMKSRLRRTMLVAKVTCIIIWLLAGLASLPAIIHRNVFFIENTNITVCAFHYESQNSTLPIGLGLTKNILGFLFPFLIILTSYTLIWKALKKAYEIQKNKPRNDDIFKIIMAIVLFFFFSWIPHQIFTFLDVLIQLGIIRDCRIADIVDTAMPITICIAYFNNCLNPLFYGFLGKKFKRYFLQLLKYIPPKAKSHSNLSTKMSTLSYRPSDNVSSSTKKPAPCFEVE
The series can be described thus: Effect on calcium current in cells stably expressing AT1 receptors (FLIPR, antagonist mode). Format: cell-based. The following applies: HEK293-AT1 cells, Fluo-8 AM, FLIPR Tetra; read-out: IC50 values of compounds on calcium current in cells stably expressing AT1 receptors. An excerpt: Test Example 1. Determination of the Effect of the Compounds of the Present Invention on Calcium Current in Cells Stably Expressing AT1 Receptors
Antagonistic effect of test compounds on HEK293-AT1 cell activity
• DMEM, high glucose (Gibco: 12100); • Fetal bovine serum (Biosera: FB-1058/500); • P/S (Biosera: XC-A4122); • 5× Matrigel (Corning: 354230); • HBSS (Sigma: H1387); • HEPES (Invitrogen: 15630080); • Fluo-8 AM (AAT Bioquest: 21080); • Probenecid (Sigma: P8761); • Pluronic F-127 (Sigma: P2443-250G); • Angiotensin III TFA (MCE: HY-113035A); • Irbesartan (MCE: HY—B0202); • 1000× Fluo-8 AM (2 mM): Fluo-8 AM was dissolved in DMSO, the mixture was shaken for 1-2 min, sub-packaged and stored at −20° C.; • Complete culture medium: DMEM+10% FBS+1×P/S; • Cell seeding medium: DMEM+10% FBS+1×PS; • Experimental buffer 1: 1×HBSS+20 mM HEPES+1 mM Probenecid+0.025% Pluronic F-127; • Experimental buffer 2: 1×HBSS+20 mM HEPES+0.075% Pluronic F-127; • 1× Matrigel: 5× Matrigel was diluted with DMEM; • Cell line: HDB HEK293-AT1.
• 1) HEK293-AT1 cell line was cultured in complete culture medium at 37° C., 5% CO2 to 70%-90% confluence. • 2) the 384-well cell plate was coated with 1× Matrigel with 5 μL/well at room temperature for 10 to 30 min. • 3) the cells were digested and resuspended in cell seeding medium, inoculation was performed at 8,000 cells/well/20 μL in a 384-well cell culture plate, and the cells were cultured at 37° C., 5% CO2 for 24 h. • 4) the cell culture plate was taken out of the CO2 incubator and equilibrated at room temperature for 10 min. • 5) 1000× Fluo-8 AM was taken and diluted to 1× Fluo-8 AM with experimental buffer 1 that has been equilibrated to room temperature, with a concentration of 2 μM. • 6) the culture medium was removed from the cell culture plate, 20 μL of 1× Fluo-8 AM was added to each well, the mixture was centrifuged at 300 rpm for 60 seconds at room temperature, and incubated at room temperature in the dark for 1 h. • 7) positive control compound and test compound working solution (3×) were formulated: • (1) instrument Bravo was used to dilute the compound to 11 concentration points on the 384-well Echo compound plate (LABCYTE: LP-0200); • (2) instrument ECHO was used to transfer 90 nL of compound per well (compound storage concentration, such as the highest concentration point 10 mM) to the 384-well compound plate (PE: 6008590); • (3) Multidrop Combi was used to add 30 μL of experimental buffer 2 to the 384-well compound plate (PE: 6008590), the positive control compound and test compound were diluted to 30 μM (3×), and placed at room temperature until use. • 8) FLIPR Tetra was used to add 10 μL of diluted 3× compound into the experimental well of the corresponding 384-well cell plate, the compound and cells were incubated for 10 min at room temperature, then 10 μL of diluted 4× agonist was added, and the data was read and collected at the same time.
FLIPR Tetra was used to read and collect the fluorescence signal value (RFU). The maximum RFU value was used to calculate the percent activation data based on the readings of the Low control (DMSO control) and High control (100 nM positive compound) experimental groups {% activation rate=(RFUsample−RFUlow control)/(RFUhigh control−RFUlow control)×100}. The concentration of the test compound was 11 concentrations after diluting the reaction system 3 times, ranging from 10 uM to 0.17 nM.

Series [5] in a line: Rat pharmacokinetic evaluation test, oral administration. Format: in vivo. The following applies: male, SD rats, p.o. 5 mg/kg, plasma. Here is the method:
SD rats were used as test animals to study the pharmacokinetic behavior of the compounds of the present invention in the rat body (plasma) after oral administration at a dose of 5 mg/kg.
3 SD rats/group, male, from Shanghai Jiesijie Experimental Animal Co., Ltd., animal production license number (SCXK (Shanghai) 2013-0006 N0.311620400001794).
• 0.5% CMC-Na (1% Tween80) was dissolved with ultrasound, and formulated into a clear solution or homogeneous suspension.
• p.o. respectively after the rats were fasted overnight; • the p.o. dose was 5 mg/kg and the administration volume was 10 mL/kg.
After oral administration of rats, 0.2 mL of blood was collected from the jugular vein at 0.25 h, 0.5 h, 1.0 h, 2.0 h, and 4.0 h, placed in an EDTA-2K test tube, centrifuged at 6000 rpm for 6 min at 4° C. to separate plasma which was stored at −80° C.; the rats can eat 4 h after administration.
• 1) 160 μL of acetonitrile was added to 40 μL of plasma sample for precipitation, mixed and centrifuged at 3500×g for 5 to 20 min. • 2) the treated supernatant solution was taken and subjected to LC/MS/MS to analyze the concentrations of the test compounds. LC/MS/MS analysis instrument: AB Sciex API 4000 Qtrap.
• Liquid phase conditions: Shimadzu LC-20AD pump • chromatographic column: AgilentZORBAX XDB-C18 (50×2.1 mm, 3.5 μm) mobile phase: liquid A was 0.1% aqueous formic acid solution, liquid B was acetonitrile • flow rate: 0.4 mL/min • Elution time: 0-4.0 min, the eluent was as follows:
The main pharmacokinetic parameters were calculated using WinNonlin 6.1.

`CCCCC1=NC2(CCCC2)C(=O)N1Cc1ccc(-c2ccccc2S(=O)(=O)Nc2noc(C)c2Cl)c(COCC)c1` [Example 45, 2-[4-[(2-butyl-4-oxo-1,3-diazaspiro[4.4]non-1-en-3-yl)methyl]-2-(ethoxymethyl)phenyl]-N-(4-chloro-5-methyl-isoxazol-3-yl)benzsulfamide]: the Remaining rate is on record as 23.3% in series [1], 32.0% in series [2] and 23.6% in series [3]. In series [4], the “blood pressure (systolic blood pressure, diastolic blood pressure, mean arterial pressure) compared with the vehicle group” value is “significantly reduced blood pressure”.

Take `[2H]C([2H])(c1ccc(-c2ccccc2S(=O)(=O)Nc2noc(C)c2Cl)c(COCC)c1)N1C(=O)C2(CCCC2)N=C1CCCC` [Example 44, 4′-((2-butyl-4-oxo-1,3-diazaspiro[4.4]non-1-en-3-yl)methyl-d2)-N-(4-chloro-5-methylisoxazol-3-yl)-2′-(ethoxymethyl)-[1,1′-biphenyl]-2-sulfonamide]: the Remaining rate in series [1] is listed as 29.4%; in series [2], 33.0%; in series [3], 24.6%. In addition, the “blood pressure (systolic blood pressure, diastolic blood pressure, mean arterial pressure) compared with the vehicle group” value in series [4] was “significantly reduced blood pressure”.

As to `CCCCC1=NC2(CCCC2)C(=O)N1Cc1ccc(-c2ccccc2S(=O)(=O)Nc2noc(C)c2C)c(COCC2CC2)c1` [Example 14, 4′-((2-butyl-4-oxo-1,3-diazaspiro[4.4]non-1-en-3-yl)methyl)-2′-((cyclopropylmethoxy)methyl)-N-(4,5-dimethylisoxazol-3-yl)-[1,1′-biphenyl]-2-sulfonamide], the half-maximal inhibitory concentration (IC50) on AT1 receptors was 6.9 nM. Moreover, in series [5], the AUC(0-inf) came to 11300 ng·h/mL, the Cmax is 2320 ng/mL and the Tmax is 0.5 h. In series [5] (read-out: MRT0-∞), the MRT inf was 5.3 h.
